In article PMC5234078, “Integrating mass spectrometry with MD simulations reveals the role of lipids in Na^+/H^+ antiporters” (Nature Communications, 2017):

Biological target: T1, NapA (wild-type NapA, MVV) (Thermus thermophilus, UniProt Q72IM4)
T1 construct: gene TT_C1108; homodimer, 82,450 Da; in C8E4
Assay: native nESI-MS and tandem MS of protein-lipid complexes; ion mobility unfolding
Conditions: detergent C8E4, ammonium acetate pH 7.5; annular, non-specific phospholipid binding

T1 sequence (Q72IM4 entry or part of it): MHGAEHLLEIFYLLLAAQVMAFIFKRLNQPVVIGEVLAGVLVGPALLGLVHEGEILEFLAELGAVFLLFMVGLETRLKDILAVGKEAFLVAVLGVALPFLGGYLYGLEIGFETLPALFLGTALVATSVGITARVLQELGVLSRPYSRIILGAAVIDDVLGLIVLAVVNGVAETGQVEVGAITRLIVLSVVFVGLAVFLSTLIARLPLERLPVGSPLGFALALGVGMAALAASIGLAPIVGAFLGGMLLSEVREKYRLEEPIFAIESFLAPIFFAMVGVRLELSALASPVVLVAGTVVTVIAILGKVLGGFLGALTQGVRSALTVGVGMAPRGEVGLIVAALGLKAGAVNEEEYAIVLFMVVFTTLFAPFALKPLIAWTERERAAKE

SMILES | native nESI-MS and tandem MS of protein-lipid complexes; ion mobility unfolding
CCCCCCCC/C=C\CCCCCCCC(=O)O[C@H](COC(=O)CCCCCCCCCCCCCCC)COP(=O)(O)OCCN [PE, 1-palmitoyl-2-oleoyl-glycerophospho-ethanolamine] | NapA with PE show a concentration-dependent increase in the number of lipid adducts
CCCCCCCC/C=C\CCCCCCCC(=O)O[C@H](COC(=O)CCCCCCCCCCCCCCC)COP(=O)(O)OCC(O)CO (some centres unmarked) [PG, 1-palmitoyl-2-oleoyl-phosphatidyl-glycerol] | Interactions with negatively charged PG lipids exhibit higher gas-phase stabilities than with zwitterionic PE
